Experimental data: patent US8754094B2, “Methods for heat shock protein dependent cancer treatment” (The Research Foundation of State University of New York, priority 2007, dated 2014)
“Also recorded” adds a separate entry of the source. Where two headings read alike, the source gives them in different places.

Legend:
[1] = tested on: BiP; test: Levels of ER lumenal chaperone BiP in NCI-H929; format: cell-based, human; details: NCI-H929, data not shown
[2] = tested on: XBP-1 mRNA splicing; test: RT-PCR analysis of XBP-1 mRNA splicing (UPR) in NCI-H929; format: cell-based, human
Method: (§1) Total RNA was prepared from NCI-H929 and HEK293 cells using TRIzol reagent (Invitrogen, Carlsbad, Calif.) following exposure to MAL3-101, MG-132, and 17-AAG alone and in combination at the indicated time points. Tunicamycin was used at varying concentrations.
(§2) Total RNAs were used for the first-strand synthesis with the Superscript reverse transcriptase (Invitrogen, Carlsbad, Calif.). PCR primers (5′-[…]-3′ [Seq. ID No. 1] and 5′-[…]-3′ [Seq. ID No. 2]) encompassing the missing sequences in XPB-1s were used for the PCR amplification with AmpliTaq Gold polymerase (Applied Biosystem, Foster City, Calif.) with a probe set spanning the spliced-out region. PCR products were separated by electrophoresis on a 3% agarose gel (Agarose-1000, Invitrogen) and visualized them by ethidium bromide staining to assess the degree of X-box binding protein-1 unspliced (XBP-1u, ˜280 bp) and spliced (XBP-1s, ˜265 bp) mRNA.
Unspliced (XBP-1u, 285 bp) and spliced (XBP-1s, 259 bp) XBP-1 mRNA levels of treated NCI-H929 were determined by PCR amplification of total RNA that was reverse transcribed by SuperScript Reverse Transcriptase (Invitrogen, Carlsbad, Calif.). PCR primers (5′-[…]-3′ [Seq. ID No. 1] and 5′-[…]-3′ [Seq. ID No. 2]), which flank the 26-nt intron of XBP1 mRNA, were used for PCR amplification with Ex Taq polymerase (Takara Bio, Shiga, Japan).

[3] = tested on: NCI-H929; test: cells
Method: For cell survival assays, cells were plated in 96-well culture plates (BD Biosciences, San Jose, Calif.), 100,000 cells/well with 200 μl, of culture media. The effect of the drugs on cell survival was assessed, for example, by measuring 3-(4,5-dimethylthiazol-2-yl)-5-(3-carboxymethoxyphenyl)-2-(4-sulphophenyl)-2H-tetrazolium, inner salt (MTS) (Promega, Madison, Wis.) dye absorbance of viable cells by adding 40 μL of 5 mg/mL MTS to each well for the last 4 hours of drug exposure. Additional wells containing cells only (untreated control) or medium only (background medium control) were used as controls. Absorbance at 490 nm (A490) was measured using a spectrophotometer (Dynatech Laboratories, Chantilly, Va.). Viability was estimated according to the following formula: […]
Briefly, the cellular fraction affected (Fa) was calculated based on an MTS assay after exposing cells to the drugs alone or in combination at a given dose compared to untreated cells, using the formula: Fa=100−% Viable Cells. Fa values were entered into Calcusyn software (Biosoft, Ferguson, Mo. and Cambridge, United Kingdom) to obtain CI values. CI values <1.0 indicated a synergistic effect of the drugs used in combination. For Inhibitory Concentration, or IC, calculations, dose-effect curves for MAL3-101, MG-132, 17-AAG, and their combinations were used to interpolate the median inhibitory concentration that caused 30% (IC30), 50% (IC50), and 70% (IC70) reductions in the % viable cells compared to untreated cells.
Cells (1×10^5) were plated in 96-well microtiter plates (Costar, Cambridge, Mass.) in 100 μL, of growth medium and exposed for indicated periods to various concentrations of compounds or their combinations. Control cells were cultured in DMSO. All studies were performed in triplicate and repeated at least three times independently. Survival was measured by an MTS assay (Promega, Madison, Wis.) as per the manufacturer's directions. The absorbance (A450) ratio of treated to untreated cells, after the subtraction of background absorbance, was multiplied by 100 to obtain percent cell survival. Cell death was measured by trypan blue dye exclusion in identically plated cultures.
DMSO-treated cultures were compared to drug-treated cultures by Student's t tests or by Dunnett's post-hoc test following significant repeated-measures one-way analysis of variance. All tests were two-tailed, and statistical significance was set at P≦0.05. Isobologram analysis was performed to derive combination index (CI) values based upon the Chou-Talalay method using CalcuSyn software (Biosoft, Ferguson, Mo. and Cambridge, United Kingdom) as described in L. Catley, E. Weisberg, T. Kiziltepe, Y. T. Tai, T. Hideshima, P. Neri, P. Tassone, P. Atadja, D. Chauhan, N. C. Munshi, K. C. Anderson, Aggresome induction by proteasome inhibitor Bortezomib and {alpha}-tubulin hyperacetylation by tubulin deacetylase (TDAC) inhibitor LBH589 are synergistic in myeloma cells, Blood (2006), which is incorporated herein by reference.

[4] = tested on: Hsp70; test: Hsp70 modulation
[5] = tested on: XBP-1 splicing; test: RT-PCR analysis of XBP-1 splicing in HEK293; format: cell-based; details: HEK293, 6 hours
Method: as §1, §2

Compound: C=CCNC1=C2C[C@@H](C)C[C@H](OC)[C@H](O)[C@@H](C)/C=C(\C)[C@H](OC(N)=O)[C@@H](OC)/C=C\C=C(/C)C(=O)NC(=CC1=O)C2=O [17-AAG, 17-allylamino-17-demethoxygeldanamycin]
- levels of BiP [1]: did not change
- XBP-1 mRNA splicing at early time points ([2]; NCI-H929, early time points (4 h), concentrations that gave synergistic cytotoxicity): no XBP-1 mRNA splicing was observed
- IC50 ([3]; read-out: IC50 (reduction of % viable cells), single agent, NCI-H929, 40 h exposure, MTS assay, agent alone): 400 nM
- IC50 ([3]; read-out: IC50 of 17-AAG in combination with 5 μM MAL3-101, NCI-H929, MTS, plus 5 μM MAL3-101): 300 nM
- IC50 ([3]; read-out: IC50 of 17-AAG in combination with 10 μM MAL3-101, NCI-H929, 40 h, MTS, plus 10 μM MAL3-101): 30 nM

Compound: CC(C)(C)NC(=O)C(c1ccc(I)cc1)N(CCN1CCOCC1)C(=O)CCCNC(=O)c1ccccc1 (stereo not drawn) [MAL3-51]
- potency as Hsp70 modulator relative to MAL3-101 [4]: less potent Hsp70 antagonist than MAL3-101; also recorded: substantially less potent Hsp70 modulator
- response of percent viability ([3]; NCI-H929, 10 or 20 μM, 40 h, MTS): no response

Compound: tunicamycin [reference compound]
- XBP-1 mRNA splicing, positive control ([2]; NCI-H929, 5 μg/ml, 4 h): induced XBP-1 mRNA splicing
- XBP-1 splicing in HEK293 [5]: Stronger XBP-1 splicing was observed
